The subject of data set [1] is Phaeosphaeria nodorum (Synonym: Septoria nodorum). The data set is described as follows: Test on the preventive effect against wheat glume blotch. The data set is classed as in vivo. The settings on record: Parastagonospora nodorum, 144 h; test solution A 500 ppm, 5 ml per pot, wheat 1.3-leaf stage, 2 days inoculation chamber then 6 days at 20° C. In short, it runs like this: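 Wheat (cv. Haruyutaka) at 1.3-leaf stage sprayed with compound at 500 ppm as diluted emulsifiable concentrate, then inoculated one day later with conidial suspension. Kept 2 days at 20° C and 100% RH, then 6 days in a greenhouse at 20° C. Control value derived from lesion proportion on inoculated leaves; duplicate.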

For another data set, the system named is Botrytis cinerea. The data set is described as follows: Test on the preventive effect against cucumber gray mold (spore inoculation). In kind it is in vivo. The settings on record: 72 h, test solution A 500 ppm, 5 ml per pot, cucumber cut leaves, conidium inoculation, 3 days at 20° C. A digest of the protocol: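 Cotyledon-stage cucumber (Sagami Hanjiro) sprayed with 500 ppm compound from emulsifiable concentrate; detached treated leaves inoculated with B. cinerea conidia in PDA (1:1). After 3 days at 20 °C, humid, lesion proportion gave control value; duplicate test.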

Data set [2] deals with Barber pole worm (Haemonchus contortus). The data set is described as follows: Insecticidal test against Barber pole worm (eggs, 96 well plate). In kind it is in vivo. The settings on record: 96 h, test solution B 100 ppm, 10 μl per well, 25° C. dark, 4 days after treatment, read-out: efficacy (unhatched eggs and inactive larvae relative to non-treated). The protocol: Compounds of the present invention were dissolved in dimethyl sulfoxide to prepare 1 wt % solutions. Then, distilled water was added to dilute the solutions to the prescribed concentration (100 ppm), and the obtained solutions were used in the following the Test Examples 9 to 12. 60 μl of a potato dextrose 1% agar medium was added to each well of a 96 well plate, and 30 μl of sterilized water containing eggs of Barber pole worm (Haemonchus contortus) (10 eggs/3 μl) was added to each well. Further, 10 μl per well of test solution B of the compounds of the present invention was added, and the plate was left at rest at 25° C. under dark conditions.

Data set [3] has as its system Colletotrichum lagenarium (Synonym: Colletotrichum orbiculare). The experiment in a line: Test on the preventive effect against cucumber anthracnose. The data set is classed as in vivo. The settings on record: 168 h, test solution A 500 ppm, 5 ml per pot sprayed, 2 days inoculation chamber then 7 days at 23° C. The protocol: Compounds of the present invention were dissolved in a solvent for emulsion (a mixture of Sorpol (registered trademark) 3005XL (manufactured by Toho Chemical Industry Co., Ltd.): N-methylpyrrolidone: Solvesso (registered trademark) 200 (manufactured by ExxonMobil Chemical) in a ratio of 1:5:2) to prepare 20 wt % emulsifiable concentrates. Then, distilled water was added to dilute the emulsifiable concentrates to the prescribed concentration (500 ppm), and the obtained solutions were used in the following the Test Examples 1 to 8. Cucumber (varieties: Sagami Hanjiro) was seeded in 90 cm^3 plastic pot, and at the cotyledon stage, 5 ml per pot of test solution A of the compounds of the present invention was sprayed. One day later, a suspension of conidium of Colletotrichum lagenarium (Synonym: Colletotrichum orbiculare) was sprayed, and the pot was left for 2 days in the inoculation chamber at 25° C. under humidity of 100% RH. Thereafter, the pot was placed in an air-conditioned greenhouse (23° C.) and left at the same temperature for 7 days. Thereafter, the proportion of the formed lesion in the inoculated leaves were measured to calculate the control value in accordance with the same formula as in Test Example 1. The test was carried out in duplicate.

Data set [4] deals with Southern root-knot nematode (Meloidogyne incognita). The data set is described as follows: Test on the preventive effect against Southern root-knot nematode (garden balsam seedlings). In kind it is in vivo. The settings on record: 504 h, test solution B 100 ppm, 1 ml per seedling to base of garden balsam seedlings, 3 weeks in greenhouse, read-out: efficacy (root knot damage degree relative to non-treated plot). The protocol: Compounds of the present invention were dissolved in dimethyl sulfoxide to prepare 1 wt % solutions. Then, distilled water was added to dilute the solutions to the prescribed concentration (100 ppm), and the obtained solutions were used in the following the Test Examples 9 to 12. 1 ml per seedling of test solution B of the compounds of the present invention was treated to the bases of garden balsam seedlings (about 2 weeks after budding) planted in a cell tray of which each cell was filled with 10 g of soil. 1 hour after the application, 1 ml per cell of water containing Southern root-knot nematode (Meloidogyne incognita) 2 L larvae (100 larvae of 2 L/1 ml) was applied to the base. The tray was placed in a greenhouse for 3 weeks, and the degree of root knot on the root was determined in accordance with the following damage index and the damage degree to calculate the efficacy (%) relative to the non-treated plot in accordance with the following formula. • 0: No knot formation was observed. • 1: Knot formations were observed on parts of the root system. • 2: Knot formations were observed on the entire root system. • 3: Large knot formations were observed. • 4: Large knot formations were observed on the entire root system. [Damage degree]=[Σ(damage index×number of each damaged indexed seedling)/(4×number of seedlings investigated)]×100 Efficacy (%)=[1−(damage degree in treated plot/damage degree in non-treated plot)]×100

`CC#Cc1cnc(CCNC(=O)c2ccccc2C(F)(F)F)c(Cl)c1` [1-001, N-[2-[3-chloro-5-(1-propynyl)pyridin-2-yl]ethyl]-2-(trifluoromethyl)benzamide] showed a melting point of 100 to 103 °C. In data set [1], this compound came in with a pest or weed control at 500 µg/mL of at least 70%. The compound further gave a pest or weed control at 500 µg/mL in the data set with Botrytis cinerea of at least 70%. Besides, in data set [2], the pest or weed control at 100 µg/mL was at least 50%. Also, the pest or weed control at 500 µg/mL in data set [3] was at least 70%.

The compound `O=C(NCCc1ncc(C#CC2CC2)cc1Cl)c1ccccc1C(F)(F)F` [1-002] yielded a melting point of 105 to 108 °C. In data set [1], this compound showed a pest or weed control at 500 µg/mL of at least 70%. The same compound registered a pest or weed control at 500 µg/mL with Botrytis cinerea of at least 70%. The pest or weed control at 100 µg/mL in data set [2] was at least 50%. This compound also registered a pest or weed control at 500 µg/mL in data set [3] of at least 70%.

For `O=C(NCC(F)(F)c1ncc(C#CC2CC2)cc1Cl)c1ccccc1C(F)(F)F` [1-005], the melting point was in the range of 137 to 139 °C. This compound came in with a pest or weed control at 500 µg/mL in data set [1] of at least 70%. Also, the pest or weed control at 500 µg/mL in the data set with Botrytis cinerea was at least 70%. Also, in data set [4], the pest or weed control at 100 µg/mL is at least 50%. Also, the pest or weed control at 100 µg/mL in data set [2] was at least 50%. Moreover, the pest or weed control at 500 µg/mL in data set [3] is at least 70%.

The compound `O=C(NCCc1ncc(C#CC2CC2)cc1Cl)c1cccnc1C(F)F` [3-001, N-[2-[3-chloro-5-(cyclopropylethynyl)pyridin-2-yl]ethyl]-2-(difluoromethyl)nicotinamide] displayed a melting point of 114 to 117 °C. The pest or weed control at 500 µg/mL in data set [1] is at least 70%. Also, in the data set on Botrytis cinerea, the pest or weed control at 500 µg/mL is at least 70%. For the same compound, in data set [4], the pest or weed control at 100 µg/mL was at least 50%. Further, in data set [2], the pest or weed control at 100 µg/mL is at least 50%.

Consider `CC(C)(C)C#Cc1cnc(CCNC(=O)c2cccnc2C(F)F)c(Cl)c1` [3-002], for which the melting point lay within 144 to 146 °C. In data set [1], this compound gave a pest or weed control at 500 µg/mL of at least 70%. This compound also registered a pest or weed control at 500 µg/mL with Botrytis cinerea of at least 70%. In addition, in data set [4], the pest or weed control at 100 µg/mL is at least 50%. In addition, in data set [2], the pest or weed control at 100 µg/mL is at least 50%. Moreover, the pest or weed control at 500 µg/mL in data set [3] was at least 70%.

In the case of `O=C(NCC(F)(F)c1ncc(C#CC2CC2)cc1Cl)c1cccnc1C(F)F` [3-003, N-[2-[3-chloro-5-(cyclopropylethynyl)pyridin-2-yl]-2,2-difluoroethyl]-2-(difluoromethyl)nicotinamide], the melting point lay within 116 to 118 °C. The compound further displayed a pest or weed control at 500 µg/mL in data set [1] of at least 70%. In the data set with Botrytis cinerea, this compound displayed a pest or weed control at 500 µg/mL of at least 70%. Moreover, the pest or weed control at 100 µg/mL in data set [4] is at least 50%. The pest or weed control at 100 µg/mL in data set [2] is at least 50%. In data set [3], this compound returned a pest or weed control at 500 µg/mL of at least 70%.

For `CC(CNC(=O)c1cccnc1C(F)F)c1ncc(C#CC2CC2)cc1Cl` (stereo not shown) [3-006], the pest or weed control at 500 µg/mL (in data set [1]; with Botrytis cinerea; in data set [3]) was at least 70% in each case. In addition, the pest or weed control at 100 µg/mL in data set [4] and in data set [2] was at least 50% in each case.

On to `O=C(NCC(c1ncc(C#CC2CC2)cc1Cl)C1CC1)c1cccnc1C(F)F` (stereo not shown) [3-008], for which the pest or weed control at 500 µg/mL (in data set [1]; in the data set on Botrytis cinerea; in data set [3]) was at least 70% each time. The pest or weed control at 100 µg/mL in data set [4] and in data set [2] was at least 50% throughout.

Turning to `CSC(CNC(=O)c1cccnc1C(F)F)c1ncc(C#CC2CC2)cc1Cl` (stereo not shown) [3-020], the pest or weed control at 500 µg/mL (in data set [1]; in the data set with Botrytis cinerea; in data set [3]) was at least 70% throughout. The pest or weed control at 100 µg/mL in data set [4] and in data set [2] was at least 50% each time.

`Cn1cc(C(=O)NCCc2ncc(C#CC3CC3)cc2Cl)c(C(F)F)n1` [8-001] showed a melting point of 96 to 98 °C. Moreover, the pest or weed control at 500 µg/mL in data set [1] was at least 70%. In the data set with Botrytis cinerea, this compound displayed a pest or weed control at 500 µg/mL of at least 70%. In addition, in data set [4], the pest or weed control at 100 µg/mL is at least 50%. The pest or weed control at 100 µg/mL in data set [2] is at least 50%.

Take `Cn1cc(C(=O)NCC(F)(F)c2ncc(C#CC3CC3)cc2Cl)c(C(F)F)n1` [8-003]: the melting point was 100 to 101 °C. Further, in data set [1], the pest or weed control at 500 µg/mL is at least 70%. The pest or weed control at 500 µg/mL in the data set with Botrytis cinerea was at least 70%. The pest or weed control at 100 µg/mL in data set [2] is at least 50%. Besides, the pest or weed control at 500 µg/mL in data set [3] was at least 70%.

For `Cn1cc(C(=O)NCC(c2ncc(C#CC3CC3)cc2Cl)C2CC2)c(C(F)F)n1` (stereo not shown) [8-009], the pest or weed control at 500 µg/mL (in data set [1]; with Botrytis cinerea; in data set [3]) was at least 70% each time. Besides, the pest or weed control at 100 µg/mL in data set [4] and in data set [2] was at least 50% throughout.

Turning to `COC(CNC(=O)c1cn(C)nc1C(F)F)c1ncc(C#CC2CC2)cc1Cl` (stereo not shown) [8-019], the melting point fell in the range of 110 to 111 °C. The pest or weed control at 500 µg/mL in data set [1] is at least 70%. Further, the pest or weed control at 500 µg/mL with Botrytis cinerea is at least 70%. Besides, the pest or weed control at 100 µg/mL in data set [4] was at least 50%. Moreover, the pest or weed control at 100 µg/mL in data set [2] was at least 50%.

As for `CSC(CNC(=O)c1cn(C)nc1C(F)F)c1ncc(C#CC2CC2)cc1Cl` (stereo not shown) [8-020, N-[2-[3-chloro-5-(cyclopropylethynyl)pyridin-2-yl]-2-(methylthio)ethyl]-3-difluoromethyl-1-methyl-1H-pyrazole-4-carboxamide], the pest or weed control at 500 µg/mL (in the data set with Botrytis cinerea; in data set [3]) was at least 70% in each case. Further, the pest or weed control at 100 µg/mL in data set [2] is at least 50%.

For `CC(Cc1ncc(C#CC2CC2)cc1Cl)NC(=O)c1cn(C)nc1C(F)F` (stereo not shown) [8-024, N-[2-[3-chloro-5-(cyclopropylethynyl)pyridin-2-yl]-1-methylethyl]-3-difluoromethyl-1-methyl-1H-pyrazole-4-carboxamide], the melting point was 127 to 130 °C. This compound gave a pest or weed control at 500 µg/mL in data set [1] of at least 70%. This compound came in with a pest or weed control at 500 µg/mL in the data set with Botrytis cinerea of at least 70%. In addition, the pest or weed control at 500 µg/mL in data set [3] was at least 70%.

For `CC(Cc1ncc(C#Cc2ccccc2)cc1Cl)NC(=O)c1cn(C)nc1C(F)F` (stereo not shown) [8-027], the pest or weed control at 500 µg/mL (in data set [1]; in the data set with Botrytis cinerea; in data set [3]) was at least 70% each time.

In the case of `Cc1nc(C(F)F)c(C(=O)NCC(C)c2ncc(C#CC3CC3)cc2Cl)s1` (stereo not shown) [9-002], the pest or weed control at 500 µg/mL (in data set [1]; with Botrytis cinerea; in data set [3]) was at least 70% in each case. Besides, in data set [2], the pest or weed control at 100 µg/mL is at least 50%.

By melting point is commonly meant the temperature, or range, at which the solid turns liquid.
